# Experimental data as given in US20250017938A1, “COMBINATION THERAPIES OF FASN INHIBITORS WITH THYROID HORMONE RECEPTOR AGONISTS” (Sagimet Biosciences Inc., priority 2023, published 2025).
# Assays:
# [1] = biological target: FASN enzyme isolated from SKBr3 cells (Homo sapiens (Human), UniProt P49327); assay: FASN biochemical activity (fluorescence measurement of CoA release, CPM dye)
# [2] = system: Male C57BL/6J Gubra-Amylin-MASH (GAN) diet-induced obese mice; assay: Gubra-Amylin-MASH (GAN) diet-induced obese mice with biopsy-confirmed MASH, 6 weeks treatment; type: in vivo, mouse; settings: 6-week treatment; for response rate (RR) for reduction of NAS ≥2-points: TVB-3664 5 mg/kg, resmetirom 3 mg/kg PO QD
# Procedure: This study was designed to evaluate FASN inhibitor alone and in combination with RES on liver histology in biopsy-confirmed MASH mice.
# Method: Male C57BL/6J Gubra-Amylin-MASH (GAN) diet-induced obese mice with histologically confirmed NAS (≥5) and fibrosis stage (F1-F3) were randomized and treated with either TVB-3664 (a surrogate FASN inhibitor for denifanstat, 5 mg/kg, PO, QD) or resmetirom (RES; MGL-3196)(3 mg/kg, PO, QD) individually or in combination for 6 weeks (n=10-12 for each group, Gubra, Denmark). Treatment groups are NC (normal chow diet control); VEH (MASH vehicle control); FASN (TVB-3664, FASN inhibitor, surrogate for denifanstat); RES (resmetirom) and COMBO (combination of TVB-3664 and resmetirom).
# [3] = system: primary isolated human stellate cells (HSC); assay: Primary human hepatic stellate cells stimulated with TGF-β1, total collagen (in vitro fibrosis study); type: cell-based; settings: primary human hepatic stellate cells, 10 ng/ml TGF-β, 4 days
# Method: Primary isolated human stellate cells (HSC) were investigated in the study. The cells were maintained under standard culture conditions and in established culture medium.
# Study Model: Viability screening and in vitro fibrosis study, 24 well plate format, 4 day stimulation with recombinant human TGF-β1. In this study, 2.5 and 10 ng/ml TGF-β1 were used.
# (§1) Primary HSCs were seeded on t=day-1 and cultured in 24 well plates for 24 hours. […] Cells were incubated for an additional 96 hours (t=day 4). Conditioned medium samples were collected for expression analysis of secreted proteins. All wells were used for an alamarBlue assay to assess cell viability/metabolic activity. A separate plate was used at t=day 0 as reference for the alamarBlue assay. Next, the cell-matrix fraction was collected for measurement of total collagen and cell protein levels.
# Both test compounds were dissolved in DMSO. Working concentrations were prepared from a stock concentration that is 1000-fold that of the highest working concentration. All controls were incubated with the same DMSO concentration as that present in the highest working concentration.
# Total Collagen assay was performed according to the manufacturer's protocol.
# Total Protein assay, for use with the Total Collagen assay, was performed according to the manufacturer's protocol. Protein levels were used to correct for differences in cell contents between samples.
# Significance of differences between the groups was calculated either parametrically or non-parametrically, using the computer program SPSS. For nonparametric calculations, a Kruskal-Wallis test for several independent samples was used, followed by a Mann-Whitney U-test for independent samples. For parametric calculations, a One-way ANOVA for multiple comparisons was used, followed by Dunnett or Bonferroni's correction.
# [4] = system: Male Ldlr -/-. Leiden mice fed with fast food diet (FFD); assay: LDL receptor knockout (Ldlr-/-.Leiden) NASH mice on fast food diet, 10 weeks treatment; type: in vivo, mouse; settings: for plasma ALT/AST / plasma total cholesterols / plasma triglycerides: TVB-3664 5 mg/kg, resmetirom 3 mg/kg PO QD alone or in combination, 4 weeks, sustained to 10 weeks; for LDL-C / VLDL-C: lipoprotein analysis
# Procedure: This study was designed to evaluate FASN inhibitor alone and in combination with resmetirom on plasma biomarkers and liver histology in LDL receptor knockout (Ldlr−/−. Leiden) NASH mice. FASN inhibitor and resmetirom were also evaluated in vitro in hepatic stellate cells (HSCs) for direct anti-fibrotic effects.
# Male Ldlr −/−. Leiden mice were fed with fast food diet (FFD) for 18 weeks to induce NASH features and treated with either TVB-3664 (a surrogate FASN inhibitor for denifanstat, 5 mg/kg, PO, QD) or THRb agonist resmetirom (MGL-3196, 3 mg/kg, PO, QD) alone or in combination for 10 weeks. Endpoints included liver enzymes, lipids and liver histology. Primary human HSCs were stimulated by TGF-b1 and treated with denifanstat or resmetirom at various concentrations (TNO, Netherlands).
# NASH/MASH [5] = settings: NASH/MASH trials; cited from earlier work
# [6] = system: primary isolated human stellate cells (HSC); assay: Primary human hepatic stellate cells stimulated with TGF-β1, PAI-1 secretion; type: cell-based; settings: primary human HSCs, TGF-b1-stimulated
# Method: as §1
# [7] = system: C57BL/6J mice fed a high-fat/fructose/cholesterol diet; assay: Reversal of established diet-induced, biopsy-confirmed NASH in mice (HFFCD 44 weeks + 8 weeks treatment); type: in vivo, mouse; settings: pirfenidone co-administered with Compound 002-386, 8 weeks
# Excerpt: C57BL/6J mice were fed a high-fat/fructose/cholesterol diet (HFFCD) for 44 weeks. For an additional eight weeks, animals continued a high-fat/fructose/cholesterol diet and received oral once-per-day treatments of either Compound 002-386, the anti-fibrotic pirfenidone, both Compound 002-386 and pirfenidone, or vehicle control. At the end of the study, analyses included histological assessment (NAFLD Activity Score (NAS) and Fibrosis Stage), gene expression (liver) total triglyceride and cholesterol content (liver and plasma), levels of alanine transaminase (ALT), and aspartate transaminase (AST) in plasma and serum cytokine levels. […]
# Blood and plasma assays (triglycerides (TG), total-cholesterol (TC), alanine transaminase (ALT), aspartate transaminase (AST)): Blood samples were collected in heparinized tubes and plasma was separated and stored at −80° C. until analysis. TG, TC, ALT, AST were measured using commercial kits (Roche Diagnostics, Germany) on the Cobas™ C-501 autoanalyzer according to the manufacturer's instructions.
# NAFLD activity score (NAS) and fibrosis stage: Liver samples were fixed in formalin, paraffin embedded, and sections were stained with hematoxylin and eosin (H&E) and Sirius Red. Samples were scored for NAS and fibrosis stage (outlined below) using of the clinical criteria outlined by Kleiner et al. 2005. […]
# NASH/MASH [8] = settings: cited from earlier work
compound,measurement,setting,value
N#Cc1ccc(C2(F)CCN(C(=O)c3ccc(Cl)c(NC(=O)c4ccc(N5CCC5)nc4)c3)CC2)nc1 [Compound 001-57],IC50,[1],30 nM
CCc1cc(C)c(-c2ncc(C3CCOC3)[nH]2)cc1C(=O)N1CCC(c2ccc(C#N)cc2)CC1 (stereo not shown) [Compound 001-192],IC50,[1],300 nM
CCc1nnc(-c2cc(C(=O)N3CCC(c4ccc(C#N)cc4)CC3)c(C)cc2C2CC(F)(F)C2)o1 [Compound 001-231],IC50,[1],300 nM
CC(C)CNC(=O)Nc1cc(C(=O)N2CCC(c3ccc(C#N)cn3)CC2)cnn1 [Compound 001-305],IC50,[1],> 50000 nM
"CC(C)c1cc(Oc2c(Cl)cc(-n3nc(C#N)c(=O)[nH]c3=O)cc2Cl)n[nH]c1=O [Compound A, resmetirom]","lobular inflammation, 1-point RR",[2],8%
same,"steatosis, RR for 1-point reduction",[2],50%
same,collagen production,[3],did not display the same effect
COCc1[nH]c(C(F)(F)F)nc1-c1cc(C(=O)N2CC(c3ccc(C#N)cc3)C2)c(C)cc1C [TVB-3664],"lobular inflammation, 1-point RR",[2],42%
same,"steatosis, RR for 1-point reduction",[2],17%
same,response rate (RR) for reduction of NAS ≥2-points,[2],33%
same,plasma ALT/AST,[4],rapidly reduced
same,plasma total cholesterols,[4],rapidly reduced
same,plasma triglycerides,[4],rapidly reduced
same,LDL-C,[4],significantly reduced
same,VLDL-C,[4],significantly reduced
Cc1nnc(-c2cc(C(=O)N3CCC(c4ccc(C#N)cc4)CC3)c(C)cc2C2CCC2)[nH]1 [denifanstat],liver fat and biomarkers associated with inflammation and fibrosis,NASH/MASH [5],improvements in liver fat and biomarkers associated with inflammation and fibrosis
same,plasminogen 1 (PAI-1) secretion,[6],decreased
same,collagen production,[3],decreased
Cc1ccc(=O)n(-c2ccccc2)c1 [pirfenidone],liver fibrosis,[7],further reduced liver fibrosis
CC(C)c1cc(Oc2c(Cl)cc(-n3nc(C#N)c(=O)[nH]c3=O)cc2Cl)n[nH]c1=O [resmetirom],plasminogen 1 (PAI-1) secretion,[6],not
same,NASH/MASH resolution and fibrosis improvement,NASH/MASH [8]; Phase III clinical trial,significant NASH/MASH resolution and fibrosis improvement
same,histology response rates,"NASH/MASH [8]; human, in vivo",< 50%
same,response rate (RR) for reduction of NAS ≥2-points,[2],25%
same,plasma ALT/AST,[4],rapidly reduced
same,plasma total cholesterols,[4],rapidly reduced
same,plasma triglycerides,[4],rapidly reduced
same,LDL-C,[4],significantly reduced
same,VLDL-C,[4],significantly reduced
